This is an account of results in patent US8933232B2, “1,3,4-oxadiazole and 1,3,4-thiadiazole beta-lactamase inhibitors” (priority 2012, dated 2015).

Where a name gives a salt, the structure may show the parent alone.

This test has as its system bacterial strains that express KPC β-lactamases. In words: Synergy MIC / standard BLI potentiation MIC assay against strains expressing KPC β-lactamases. The note with it: in the presence of a β-lactam; comparator Avibactam. The test is classed as cell-based. In short, it runs like this:
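Broth microdilution per modified CLSI M07-A9 in CAMHB, ~10^5 CFU/mL, 18-20 h at 37 °C with aeration; engineered E. coli carrying cloned β-lactamase plasmids kept in 25 μg/mL tetracycline. β-Lactam MIC read with BLI fixed at 4 μg/mL, or BLI serially diluted against fixed β-lactam; MIC = lowest concentration without visible turbidity.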
As to `NC1CCN(Cc2nnc([C@@H]3CC[C@@H]4CN3C(=O)N4OS(=O)(=O)O)o2)CC1` [Compound 774, (2S,5R)-2-(5-((4-aminopiperidin-1-yl)methyl)-1,3,4-oxadiazol-2-yl)-7-oxo-1,6-diazabicyclo[3.2.1]octan-6-yl hydrogen sulfate], the “more active than Avibactam for at least one bacterial strain that expresses KPC β-lactamase and/or better spectrum of activity against KPC strains” value (from here on “more active than Avibactam … against KPC strains”) was “more active than Avibactam”.

Regarding `NC1CCN(CCc2nnc([C@@H]3CC[C@@H]4CN3C(=O)N4OS(=O)(=O)O)o2)CC1` [Compound 775, (2S,5R)-2-(5-(2-(4-aminopiperidin-1-yl)ethyl)-1,3,4-oxadiazol-2-yl)-7-oxo-1,6-diazabicyclo[3.2.1]octan-6-yl hydrogen sulfate], the “more active than Avibactam … against KPC strains” value is listed as “more active than Avibactam”. For `O=C1N2C[C@@H](CC[C@H]2c2nnc(CCN3CCNCC3)o2)N1OS(=O)(=O)O` [Compound 776, (2S,5R)-7-oxo-2-(5-(2-(piperazin-1-yl)ethyl)-1,3,4-oxadiazol-2-yl)-1,6-diazabicyclo[3.2.1]octan-6-yl hydrogen sulfate] the value was “more active than Avibactam”. Next, `O=C1N2C[C@@H](CC[C@H]2c2nnc(CN3CCNCC3)o2)N1OS(=O)(=O)O` [Compound 777, (2S,5R)-7-oxo-2-(5-(piperazin-1-ylmethyl)-1,3,4-oxadiazol-2-yl)-1,6-diazabicyclo[3.2.1]octan-6-yl hydrogen sulfate]: “more active than Avibactam”; `O=C1N2C[C@@H](CC[C@H]2c2nnc([C@H]3CNCCN3)o2)N1OS(=O)(=O)O` [Compound 779, (2S,5R)-7-oxo-2-(5-((R)-piperazin-2-yl)-1,3,4-oxadiazol-2-yl)-1,6-diazabicyclo[3.2.1]octan-6-yl hydrogen sulfate]: “more active than Avibactam”. For `C[n+]1ccc(-c2nnc([C@@H]3CC[C@@H]4CN3C(=O)N4OS(=O)(=O)[O-])o2)cc1` [Compound 782, (2S,5R)-2-(5-(1-methylpyridin-1-ium-4-yl)-1,3,4-oxadiazol-2-yl)-7-oxo-1,6-diazabicyclo[3.2.1]octan-6-yl sulfate] the value was “more active than Avibactam”. On to `N[C@H]1C[C@H](c2nnc([C@@H]3CC[C@@H]4CN3C(=O)N4OS(=O)(=O)O)s2)C1` [Compound 783, (2S,5R)-2-(5-((1r,3S)-3-aminocyclobutyl)-1,3,4-thiadiazol-2-yl)-7-oxo-1,6-diazabicyclo[3.2.1]octan-6-yl hydrogen sulfate], for which the “more active than Avibactam … against KPC strains” value is “more active than Avibactam”. Regarding `N=C(N)N[C@H]1C[C@@H](c2nnc([C@@H]3CC[C@@H]4CN3C(=O)N4OS(=O)(=O)O)s2)C1` [Compound 784, (2S,5R)-2-(5-((1s,3R)-3-guanidinocyclobutyl)-1,3,4-thiadiazol-2-yl)-7-oxo-1,6-diazabicyclo[3.2.1]octan-6-yl hydrogen sulfate], the “more active than Avibactam … against KPC strains” value is on record as “more active than Avibactam”.

As to `N=C(N)NCCc1nnc([C@@H]2CC[C@@H]3CN2C(=O)N3OS(=O)(=O)O)s1` [Compound 794, (2S,5R)-2-(5-(2-guanidinoethyl)-1,3,4-thiadiazol-2-yl)-7-oxo-1,6-diazabicyclo[3.2.1]octan-6-yl hydrogen sulfate], the “more active than Avibactam … against KPC strains” value is “more active than Avibactam”. Consider `N[C@H]1C[C@@H](c2nnc([C@@H]3CC[C@@H]4CN3C(=O)N4OS(=O)(=O)O)s2)C1` [Compound 795, (2S,5R)-2-(5-((1s,3R)-3-aminocyclobutyl)-1,3,4-thiadiazol-2-yl)-7-oxo-1,6-diazabicyclo[3.2.1]octan-6-yl hydrogen sulfate], for which the “more active than Avibactam … against KPC strains” value is reported as “more active than Avibactam”.
